The record followed here is patent US8632832B2, “Direct dissolution” (Phares Pharmaceutical Research N.V., priority 2005, dated 2014).

A short description of series [1]: HPLC analysis of trans/cis isomer content and degradation products after in-line heating and cooling. It is filed as physicochemical. The conditions noted are these: 1 s. From the text: (§1) The oily astaxanthin solution may be further processed by mixing with fish feed pellets.
The nature of series [2]: Degree of dissolution of the carotenoid in the oily phase: filtration through a 0.45 μm pore size filter, then HPLC of the filtrate. In kind it is physicochemical. As for the experimental part: “Dissolving” or “dissolution” means obtaining molecular dispersions or molecular aggregates of a carotenoid which may be monomers, dimers, trimers etc and/or colloidal dispersions of the carotenoid. Assessment of the degree of dissolution of the carotenoid in an oily phase is performed by filtration of the oily phase through a 0.45 μm pore size filter, followed by HPLC determination of the carotenoid content in the filtrate and compared with the total carotenoid concentration in the unfiltered oily phase. “Substantially” means at least 40 wt %.
as §1

Setting [3] is: Example 2: 1500 or 250 ppm astaxanthin composition, heated 150° C., then cooled.

As for `CC1=C(/C=C/C(C)=C/C=C/C(C)=C/C=C/C=C(C)/C=C/C=C(C)/C=C/C2=C(C)C(=O)[C@@H](O)CC2(C)C)C(C)(C)C[C@H](O)C1=O` [astaxanthin], in series [1] (setting [3]), the all trans-astaxanthin content worked out at 75%, the cis isomers content was determined as 25% and the further degradation products entry was “no further degradation products”. The compound further registered a cis-isomers content in series [1] (Example 3: 250 ppm astaxanthin composition, heated 126° C., then cooled with fish oil of 23° C.) of 12%. Also, in series [2] (Example 2: 1500 or 250 ppm astaxanthin composition in soya bean oil/fish oil, heated 150° C., transit time 1 s, then cooled), the “degree of dissolution of astaxanthin after filtration through 0.45 μm filter (HPLC)” value was “completely solubilised”. In series [2] (Example 3: 250 ppm astaxanthin composition in soy bean oil/fish oil, heated 126° C., 1 s, then cooled with fish oil of 23° C.), the “degree of dissolution of astaxanthin after filtration through 0.45 μm filter (HPLC)” value is given as “completely solubilised”.
